The text below walks through data of patent US20240076314A1 (priority 2020, published 2024).

A word on the IC50: it is the point on the concentration scale where inhibition reaches its midpoint.

The structures appear in SMILES notation. Where a SMILES comes first, the peptide text is derived from it. Bridges are numbered along the chain shown (N, C = ends).

The experiment addresses human nAChR (hnAChR α1/β1/γ/ε-HEK 293 Recombinant Cell Line) (Homo sapiens, UniProt P02708+Q04844+Q07001). Kind of experiment: cell-based.

human nAChR (hnAChR α1/β1/γ/ε-HEK 293 Recombinant Cell Line), sequence (P02708 whole entry, looked up): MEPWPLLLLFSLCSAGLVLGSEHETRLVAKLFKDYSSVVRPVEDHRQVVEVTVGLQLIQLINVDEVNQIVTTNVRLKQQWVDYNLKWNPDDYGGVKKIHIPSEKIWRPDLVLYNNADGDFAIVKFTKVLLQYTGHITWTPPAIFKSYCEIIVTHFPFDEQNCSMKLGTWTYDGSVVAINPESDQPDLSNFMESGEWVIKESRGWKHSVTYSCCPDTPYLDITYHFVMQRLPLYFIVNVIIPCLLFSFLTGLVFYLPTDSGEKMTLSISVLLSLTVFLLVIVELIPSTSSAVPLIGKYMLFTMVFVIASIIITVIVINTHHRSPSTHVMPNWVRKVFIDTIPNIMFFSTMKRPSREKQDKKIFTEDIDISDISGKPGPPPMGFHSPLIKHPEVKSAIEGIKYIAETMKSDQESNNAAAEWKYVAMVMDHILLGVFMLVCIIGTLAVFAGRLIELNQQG
human nAChR (hnAChR α1/β1/γ/ε-HEK 293 Recombinant Cell Line), sequence (Q04844 whole entry, looked up): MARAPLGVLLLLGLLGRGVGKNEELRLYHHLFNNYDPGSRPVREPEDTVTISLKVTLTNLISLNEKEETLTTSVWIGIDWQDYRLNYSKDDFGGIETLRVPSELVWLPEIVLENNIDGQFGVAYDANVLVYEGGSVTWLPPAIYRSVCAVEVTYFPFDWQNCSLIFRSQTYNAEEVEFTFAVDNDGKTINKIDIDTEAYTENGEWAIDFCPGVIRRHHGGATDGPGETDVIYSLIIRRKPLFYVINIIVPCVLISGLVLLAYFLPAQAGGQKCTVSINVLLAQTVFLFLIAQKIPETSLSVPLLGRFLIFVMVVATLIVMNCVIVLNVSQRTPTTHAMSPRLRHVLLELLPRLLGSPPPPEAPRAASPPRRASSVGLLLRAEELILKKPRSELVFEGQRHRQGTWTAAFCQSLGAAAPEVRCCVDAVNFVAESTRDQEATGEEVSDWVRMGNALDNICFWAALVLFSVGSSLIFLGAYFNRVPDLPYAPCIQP
human nAChR (hnAChR α1/β1/γ/ε-HEK 293 Recombinant Cell Line), sequence (Q07001 whole entry, looked up): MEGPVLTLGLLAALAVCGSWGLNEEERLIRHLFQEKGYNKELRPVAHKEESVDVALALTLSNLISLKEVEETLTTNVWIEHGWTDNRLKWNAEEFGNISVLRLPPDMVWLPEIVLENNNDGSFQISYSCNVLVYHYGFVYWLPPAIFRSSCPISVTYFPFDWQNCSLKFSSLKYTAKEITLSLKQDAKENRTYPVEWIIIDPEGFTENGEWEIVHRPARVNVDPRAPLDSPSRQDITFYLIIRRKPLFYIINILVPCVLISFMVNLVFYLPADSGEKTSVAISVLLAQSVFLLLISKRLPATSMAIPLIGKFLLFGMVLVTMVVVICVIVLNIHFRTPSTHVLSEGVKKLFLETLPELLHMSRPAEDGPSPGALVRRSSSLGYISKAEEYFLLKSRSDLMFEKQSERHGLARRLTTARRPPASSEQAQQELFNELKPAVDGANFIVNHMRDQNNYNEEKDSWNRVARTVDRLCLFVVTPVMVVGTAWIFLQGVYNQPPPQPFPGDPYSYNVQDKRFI

As for `CC(=O)N[C@H]1CSSC[C@@H]2NC(=O)[C@H](C)NC(=O)[C@@H]3CCCN3C(=O)[C@H](CC(N)=O)NC(=O)[C@H](CSSC[C@@H](C(N)=O)NC(=O)[C@H](CO)NC(=O)[C@H](Cc3ccc(O)cc3)NC(=O)[C@H](CC(N)=O)NC(=O)[C@H](CCCCN)NC(=O)CNC2=O)NC1=O` [SEQ ID NO: 60, Ac-Cys-Cys-Asn-Pro-Ala-Cys-Gly-Lys-Asn-Tyr-Ser-Cys-NH2] (Ac-CCNPACGKNYSC-NH2; disulfide 1-6, 2-12), the IC50 was more than 100 nM.
On to `CC(=O)N[C@H]1CSSC[C@@H]2NC(=O)[C@H](C)NC(=O)[C@@H]3CCCN3C(=O)[C@H](CC(N)=O)NC(=O)[C@H](CSSC[C@@H](C(N)=O)NC(=O)[C@H](CCCCN)NC(=O)[C@H](Cc3ccc(O)cc3)NC(=O)[C@H](CC(N)=O)NC(=O)[C@H](CCCCN)NC(=O)CNC2=O)NC1=O` [SEQ ID NO: 62, Ac-Cys-Cys-Asn-Pro-Ala-Cys-Gly-Lys-Asn-Tyr-Lys-Cys-NH2] (Ac-CCNPACGKNYKC-NH2; disulfide 1-6, 2-12), for which the IC50 is more than 100 nM.
